Measured values: patent US20040058903A1, “Benzamide compounds as apo b secretion inhibitors” (priority 2000, published 2004)

Columns and labels:
ddY-mice = assay: Lipids lowering effect on ddY-mice; assay type: in vivo; settings: male ddY-mice, oral dose 32 mg/kg, 2 hr after administration, percent relative to baseline (0 hr); for Cholesterol (% of 0 hr) 2 hr: plasma total-cholesterol; for Triglyceride (% of 0 hr) 2 hr: plasma triglyceride
Text: Test 2: Lipids Lowering Effect on ddY-Mice
Male ddy-mice were housed in temperature- and humidity-controlled rooms and fed with laboratory chow. The animals were randomized according to their body weight and deprived of food just before the experiment. A blood sample (baseline blood sample) was collected from the retro orbital venous plexus before administration of the test drug, and then the animals were orally dosed with the test drug in a vehicle (aqueous solution of 0.5% methylcellulose). Blood samples were drawn at 2 hours after drug administration for the measurement of cholesterol and triglyceride.
Plasma total-cholesterol and plasma triglyceride were determined by conventional enzyme-methods using commercially available kits. The cholesterol CII-Test Wako (Wako Pure Chemical Industries, Ltd.) was used for the measurement of cholesterol, and the triglyceride E-test Wako (Wako Pure Chemical Industries, Ltd.) was used for the measurement of triglyceride.
Lipids lowering effects were shown in percent relative to the baseline level (level at 0 hr).

Apo B secretion = assay: Measurement of inhibition of Apo B secretion (HepG2 cells, ELISA); assay type: cell-based; settings: 15-hour incubation, 0.1% DMSO treated cells as controls; for inhibition at 1 µM: Homo sapiens, 10^−6 M
Experimental: Test 1: Measurement of Inhibition of Apo B Secretion
HepG2 cells were seeded in Eagles medium containing 10% fetal calf serum (FCS) at a density of 30000 cells/well in 96-well plates and allowed to grow for 3 days before treatment. At this time, the medium was replaced with fresh medium containing 0.1% dimethyl sulfoxide (DMSO) and the indicated concentrations of a test compound. After 15-hour incubation, the amount of Apo B and Apo AI accumulated in the media was determined by ELISA.
The assay was carried out at room temperature. A flat bottomed micro ELISA plate (manufactured by Nunc) was coated with an anti Apo B monoclonal antibody solution ([…] in 0.05% carbonate buffer, pH 9.6) by adding the antibody solution at a volume of 100 μl per well. After 1-hour incubation on a plate mixer, the unbound materials were removed by washing the well 3 times with a washing buffer (phosphate buffered saline, pH 7.2 containing 0.1% bovine serum albumin and 0.05% Tween-20). Then 20 μl of […] and 100 μl of a solution of peroxidase coupled anti Apo B antibody were added. After 1-hour incubation on a plate mixer, washing was performed 3 times to remove the unbound materials. A freshly prepared substrate solution (2.5 mg/ml ortho-phenylene diamine and 0.018% H2Oz in 0.11 M Na2HPO4-0.044 M sodium citrate buffer, pH 5.4) at a volume of 200 μl was then added to each well. After 20-minute incubation, the enzyme reaction was terminated by adding 50 μl of 0.5 M sulfuric acid. Absorbance of each well was determined at 490 nm using a microplate reader. Apo B concentration was calculated from a standard curve generated from purified Apo B standard that was run in parallel in the same plate. Inhibition of Apo B secretion by the test compound is calculated taking […] treated cells as controls.
Measurement of Apo AI was performed similar to that of Apo B, except for diluting the sample 11-fold with a dilution buffer (phosphate buffered saline, pH 7.2 containing 0.5% bovine serum albumin and 0.05% Tween-20). […]

O=C(Nc1ccc(CCCc2ccccn2)cc1)c1ccccc1-c1ccc(C(F)(F)F)cc1 [Example 25, N-{4-[3-(2-pyridinyl)propyl]phenyl}-4′-(trifluoromethyl)-1,1′-biphenyl-2-carboxamide]
Cholesterol (% of 0 hr) 2 hr (ddY-mice): 78 % of 0 hr
Triglyceride (% of 0 hr) 2 hr (ddY-mice): 23 % of 0 hr

Nc1cccc(CCCc2ccc(NC(=O)c3ccccc3-c3ccc(C(F)(F)F)cc3)cc2)n1 [Example 44, N-{4-[3-(6-amino-2-pyridinyl)propyl]phenyl}-4′-(trifluoromethyl)-1,1′-biphenyl-2-carboxamide]
inhibition at 1 µM (Apo B secretion): 100%

O=C(Nc1ccc(NCCc2ccccn2)cc1)c1ccccc1-c1ccc(C(F)(F)F)cc1 [Example 59, N-(4-{[2-(2-pyridinyl)ethyl]amino}phenyl)-4′-(trifluoromethyl)-1,1′-biphenyl-2-carboxamide]
Cholesterol (% of 0 hr) 2 hr (ddY-mice): 77 % of 0 hr
Triglyceride (% of 0 hr) 2 hr (ddY-mice): 15 % of 0 hr

O=C(Nc1ccc(NCCc2ccccn2)cc1)c1ccccc1Nc1cccc(C(F)(F)F)c1 [Example 64, N-(4-{[2-(2-pyridinyl)ethyl]amino}phenyl)-2-[3-(trifluoromethyl)-anilino]benzamide]
inhibition at 1 µM (Apo B secretion): 100%

O=C(Cc1ccccn1)Nc1ccc(NC(=O)c2ccccc2-c2ccc(C(F)(F)F)cc2)cc1 [Example 65, N-{4-[(2-pyridinylacetyl)amino]phenyl]-4′-(trifluoromethyl)-1,1′-biphenyl-2-carboxamide]
Inhibition of Apo B secretion at 10^−6 M (%) (Apo B secretion): 92.2%
Cholesterol (% of 0 hr) 2 hr (ddY-mice): 83 % of 0 hr
Triglyceride (% of 0 hr) 2 hr (ddY-mice): 36 % of 0 hr
